# Data: patent US11535615B2, “Heterocyclic compounds as immunomodulators” (Incyte Corporation, priority 2015, dated 2022)
# Target: PD-1/PD-L1 protein/protein interaction (Homo sapiens (Human), UniProt Q9NZQ7)
# Test: PD-1/PD-L1 Homogeneous Time-Resolved Fluorescence (HTRF) Binding Assay
# Conditions: recombinant human PD-L1 (19-238) His-tag and human PD-1 (25-167) Fc tag; PBS pH 7.4
# Experimental: Example A. PD-1/PD-L1 Homogeneous Time-Resolved Fluorescence (HTRF) Binding Assay
# The assays were conducted in a standard black 384-well polystyrene plate with a final volume of 20 μL. Inhibitors were first serially diluted in DMSO and then added to the plate wells before the addition of other reaction components. The final concentration of DMSO in the assay was 1%. The assays were carried out at […] in the PBS buffer (pH 7.4) with 0.05% Tween-20 and 0.1% BSA. Recombinant human PD-L1 protein (19-238) with a His-tag at the C-terminus was purchased from AcroBiosystems (PD1-H5229). Recombinant human PD-1 protein (25-167) with Fc tag at the C-terminus was also purchased from AcroBiosystems (PD1-H5257). PD-L1 and PD-1 proteins were diluted in the assay buffer and 10 μL was added to the plate well. Plates were centrifuged and proteins were preincubated with inhibitors for 40 minutes. The incubation was followed by the addition of 10 μL of HTRF detection buffer supplemented with Europium cryptate-labeled anti-human IgG (PerkinElmer-AD0212) specific for Fc and anti-His antibody conjugated to SureLight®-Allophycocyanin (APC, PerkinElmer-AD0059H). After centrifugation, the plate was incubated at 25° C. for 60 min. before reading on a PHERAstar FS plate reader (665 nm/620 nm ratio). Final concentrations in the assay were […] PD1, 10 nM PD-L1, 1 nM europium anti-human IgG and 20 nM anti-His-Allophycocyanin. IC50 determination was performed by fitting the curve of percent control activity versus the log of the inhibitor concentration using the GraphPad Prism 5.0 software.
# Chain of PD-1/PD-L1 protein/protein interaction (Q9NZQ7 19-238): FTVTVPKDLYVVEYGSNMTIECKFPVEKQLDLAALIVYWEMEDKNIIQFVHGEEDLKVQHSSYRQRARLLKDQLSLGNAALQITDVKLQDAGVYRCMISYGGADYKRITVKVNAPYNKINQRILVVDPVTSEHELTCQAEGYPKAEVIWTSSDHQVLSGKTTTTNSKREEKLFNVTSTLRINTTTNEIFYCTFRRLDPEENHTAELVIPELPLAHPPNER
row,SMILES,IC50
1,"N#Cc1c(Nc2nccc3cc(CNCCO)cnc23)cccc1C1CCCCC1 [Example 21, 2-cyclohexyl-6-[(3-{[(2-hydroxyethyl)amino]methyl}-1,7-naphthyridin-8-yl)amino]benzonitrile]",0.01 to 0.1 µM
2,"Cc1c(Nc2nccc3c(Cl)c(CNCCO)cnc23)cccc1-c1ccccc1 [Example 9, 2-[({4-chloro-8-[(2-methylbiphenyl-3-yl)amino]-1,7-naphthyridin-3-yl}methyl)amino]ethanol]",0.01 to 0.1 µM
3,"Cc1c(Nc2nccc3c(CN4CCCCC4C(=O)O)ccnc23)cccc1-c1ccc2c(c1)OCCO2 (stereo not drawn) [Example 13, 1-[(8-{[3-(2,3-dihydro-1,4-benzodioxin-6-yl)-2-methylphenyl]amino}-1,7-naphthyridin-4-yl)methyl]piperidine-2-carboxylic Acid]",0.01 to 0.1 µM
4,"Cc1c(Nc2cccc3cc(CNCCO)cnc23)cccc1-c1ccccc1 [Example 1, 2-[({8-[(2-methylbiphenyl-3-yl)amino]quinolin-3-yl}methyl)amino]ethanol]",0.01 to 0.1 µM
5,"Cc1c(Nc2ncnc3cc(CN4CCCCC4C(=O)O)cnc23)cccc1-c1ccccc1 (stereo not drawn) [Example 4, 1-({4-[(2-methylbiphenyl-3-yl)amino]pyrido[3,2-d]pyrimidin-7-yl}methyl)piperidine-2-carboxylic Acid]",0.01 to 0.1 µM
6,"Cc1c(Nc2nccc3nc(CN4CCCC[C@H]4C(=O)O)cnc23)cccc1-c1ccccc1 [Example 15, (2S)-1-({5-[(2-methylbiphenyl-3-yl)amino]pyrido[3,4-b]pyrazin-2-yl}methyl)piperidine-2-carboxylic Acid]",0.01 to 0.1 µM
7,"Cc1c(Nc2nccc3cc(CN4CCCCC4C(=O)O)cnc23)cccc1-c1ccccc1 (stereo not drawn) [Example 3, 1-({8-[(2-methylbiphenyl-3-yl)amino]-1,7-naphthyridin-3-yl}methyl)piperidine-2-carboxylic Acid]",0.01 to 0.1 µM
8,"Cc1c(Nc2cccc3c(CNCCO)ccnc23)cccc1-c1ccccc1 [Example 7, 2-[({8-[(2-methylbiphenyl-3-yl)amino]quinolin-4-yl}methyl)amino]ethanol]",0.01 to 0.1 µM
9,"Cc1c(Nc2cccc3c(CN4CCCCC4C(=O)O)ccnc23)cccc1-c1ccccc1 (stereo not drawn) [Example 8, 1-({8-[(2-methylbiphenyl-3-yl)amino]quinolin-4-yl}methyl)piperidine-2-carboxylic Acid]",0.01 to 0.1 µM

# The remaining lines, values ahead:
row,IC50,SMILES
1,≤ 0.01 µM,"N#Cc1c(Nc2nccc3cc(CNCCO)cnc23)cccc1-c1ccccc1 [Example 19, 3-[(3-{[(2-hydroxyethyl)amino]methyl}-1,7-naphthyridin-8-yl)amino]biphenyl-2-carbonitrile]"
2,≤ 0.01 µM,"Cc1c(Nc2nccc3nc(CNCCO)cnc23)cccc1-c1ccccc1 [Example 14, 2-[({5-[(2-methylbiphenyl-3-yl)amino]pyrido[3,4-b]pyrazin-2-yl}methyl)amino]ethanol]"
3,0.01 to 0.1 µM,"Cc1c(Nc2nccc3c(CNCCO)ccnc23)cccc1-c1ccccc1 [Example 6, 2-[({8-[(2-methylbiphenyl-3-yl)amino]-1,7-naphthyridin-4-yl}methyl)amino]ethanol]"
4,≤ 0.01 µM,"Cc1c(Nc2nccc3cc(CNCCO)cnc23)cccc1C1=CCCCC1 [Example 18, 2-[({8-[(3-cyclohex-1-en-1-yl-2-methylphenyl)amino]-1,7-naphthyridin-3-yl}methyl)amino]ethanol]"
5,0.01 to 0.1 µM,"Cc1c(Nc2nccc3c(Cl)c(CN4CCCCC4C(=O)O)cnc23)cccc1-c1ccccc1 (stereo not drawn) [Example 11, 1-({4-chloro-8-[(2-methylbiphenyl-3-yl)amino]-1,7-naphthyridin-3-yl}methyl)piperidine-2-carboxylic Acid]"
6,≤ 0.01 µM,"Cc1c(Nc2nccc3c(CNCCO)ccnc23)cccc1-c1ccc2c(c1)OCCO2 [Example 12, 2-{[(8-{[3-(2,3-dihydro-1,4-benzodioxin-6-yl)-2-methylphenyl]amino}-1,7-naphthyridin-4-yl)methyl]amino}ethanol]"
7,≤ 0.01 µM,"Cc1c(Nc2nccc3c(CN4CCCCC4C(=O)O)ccnc23)cccc1-c1ccccc1 (stereo not drawn) [Example 5, 1-({8-[(2-methylbiphenyl-3-yl)amino]-1,7-naphthyridin-4-yl}methyl)piperidine-2-carboxylic Acid]"
8,≤ 0.01 µM,"N#Cc1c(Nc2nccc3cc(CNCCO)cnc23)cccc1C1=CCCCC1 [Example 20, 2-cyclohex-1-en-1-yl-6-[(3-{[(2-hydroxyethyl)amino]methyl}-1,7-naphthyridin-8-yl)amino]benzonitrile]"
9,≤ 0.01 µM,"N#Cc1c(Nc2nccc3cc(CNCCO)cnc23)cccc1-c1ccc2c(c1)OCCO2 [Example 16, 2-(2,3-dihydro-1,4-benzodioxin-6-yl)-6-[(3-{[(2-hydroxyethyl)amino]methyl}-1,7-naphthyridin-8-yl)amino]benzonitrile]"
10,≤ 0.01 µM,"Cc1c(Nc2nccc3cc(CNCCO)cnc23)cccc1-c1ccccc1 [Example 2, 2-[({8-[(2-methylbiphenyl-3-yl)amino]-1,7-naphthyridin-3-yl}methyl)amino]ethanol]"
11,≤ 0.01 µM,"Cc1c(Nc2nccc3cc(CNCCO)cnc23)cccc1-c1ccc2c(c1)OCCO2 [Example 17, 2-{[(8-{[3-(2,3-dihydro-1,4-benzodioxin-6-yl)-2-methylphenyl]amino}-1,7-naphthyridin-3-yl)methyl]amino}ethanol]"
12,≤ 0.01 µM,"COc1c(CNCCO)cnc2c(Nc3cccc(-c4ccccc4)c3C)nccc12 [Example 10, 2-[({4-methoxy-8-[(2-methylbiphenyl-3-yl)amino]-1,7-naphthyridin-3-yl}methyl)amino]ethanol]"
